Positions of bridges follow the written chain, without caps; N, C: chain ends. Residues, ends and D or L forms follow the SMILES beside them.
Experiments:
[1] = target: T1, intestinal guanylate cyclase (Homo sapiens, UniProt P25092); test: Cyclic GMP determination in T84 cells (bioassay); type: cell-based
T1 construct: Monolayers of T84 cells in 24-well plates were washed twice; host or cells: T84 human colon carcinoma cells

proximal colon = details: read-out: EC50 for increase in Isc (X±S.E.); mucosal (luminal) addition, rat proximal colon, n=4 animals

T1 sequence (P25092 24-1073): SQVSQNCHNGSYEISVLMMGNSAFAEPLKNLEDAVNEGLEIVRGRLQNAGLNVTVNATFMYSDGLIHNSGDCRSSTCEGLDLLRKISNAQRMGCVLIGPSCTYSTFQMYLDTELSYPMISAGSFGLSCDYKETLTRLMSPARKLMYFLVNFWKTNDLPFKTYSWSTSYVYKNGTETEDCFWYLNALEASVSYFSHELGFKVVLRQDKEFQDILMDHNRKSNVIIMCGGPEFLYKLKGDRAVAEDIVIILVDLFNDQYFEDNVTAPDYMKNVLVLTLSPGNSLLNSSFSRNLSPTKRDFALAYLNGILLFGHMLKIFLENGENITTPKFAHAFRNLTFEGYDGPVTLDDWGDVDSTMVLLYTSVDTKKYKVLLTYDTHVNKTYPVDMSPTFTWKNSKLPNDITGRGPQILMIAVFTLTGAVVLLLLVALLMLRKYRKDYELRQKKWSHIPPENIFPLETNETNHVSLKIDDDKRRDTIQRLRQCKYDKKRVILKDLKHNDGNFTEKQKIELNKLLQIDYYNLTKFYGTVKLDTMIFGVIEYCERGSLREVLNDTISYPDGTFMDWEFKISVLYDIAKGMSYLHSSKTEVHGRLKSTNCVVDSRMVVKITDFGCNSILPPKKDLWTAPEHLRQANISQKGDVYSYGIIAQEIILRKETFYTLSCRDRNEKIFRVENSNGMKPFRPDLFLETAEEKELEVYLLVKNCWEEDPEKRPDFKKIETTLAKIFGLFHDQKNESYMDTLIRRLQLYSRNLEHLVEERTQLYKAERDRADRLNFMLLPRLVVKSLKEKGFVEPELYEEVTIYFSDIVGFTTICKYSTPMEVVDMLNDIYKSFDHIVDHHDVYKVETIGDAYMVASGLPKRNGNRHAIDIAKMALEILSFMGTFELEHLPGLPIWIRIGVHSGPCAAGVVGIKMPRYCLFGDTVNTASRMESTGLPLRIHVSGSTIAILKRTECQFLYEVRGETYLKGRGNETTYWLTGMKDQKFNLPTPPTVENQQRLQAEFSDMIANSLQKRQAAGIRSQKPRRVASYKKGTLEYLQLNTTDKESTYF

For `CC[C@H](C)[C@@H]1NC(=O)[C@H](CCCNC(=N)N)NC(=O)[C@H](CC(=O)O)NC(=O)[C@H](CCSC)NC(=O)[C@H](CCCNC(=N)N)NC(=O)CNC(=O)CNC(=O)[C@H](Cc2ccccc2)NC(=O)[C@@H](NC(=O)[C@H](CO)NC(=O)[C@H](CO)NC(=O)[C@H](CCCNC(=N)N)NC(=O)[C@H](CCCNC(=N)N)NC(=O)[C@H](CC(C)C)NC(=O)[C@@H](N)CO)CSSC[C@@H](C(=O)N[C@@H](CC(N)=O)C(=O)N[C@@H](CO)C(=O)N[C@@H](Cc2ccccc2)C(=O)N[C@@H](CCCNC(=N)N)C(=O)N[C@@H](Cc2ccc(O)cc2)C(=O)O)NC(=O)CNC(=O)[C@H](CC(C)C)NC(=O)CNC(=O)[C@H](CO)NC(=O)[C@H](CCC(N)=O)NC(=O)[C@H](C)NC(=O)CNC1=O` [atrial natriuretic peptide], the “effect on cyclic GMP levels” value [1] was “not detected”.

Work on `CC[C@H](C)[C@@H]1NC(=O)[C@H](CCC(=O)O)NC(=O)[C@@H](NC(=O)[C@@H](NC(=O)[C@H](CC(N)=O)NC(=O)[C@@H]2CCCN2)[C@@H](C)O)CSSC[C@@H]2NC(=O)[C@H](C)NC(=O)[C@H](C)NC(=O)[C@H](Cc3ccc(O)cc3)NC(=O)[C@H](C)NC(=O)[C@H](CSSC[C@@H](C(=O)O)NC(=O)CNC(=O)[C@H]([C@@H](C)O)NC2=O)NC1=O` [guanylin] (H-PNTCEICAYAACTGC-OH; disulfide 4-12, 7-15) yielded an EC50 (proximal colon) of 162 ± 26 nM.

With `O[C@H](CS)[C@H](O)CS` (racemic) [DTT, dithiothreitol] the “effect on responsiveness of the cells” value ([1]; T84 cells treated with 10 μM) was “failed to affect their responsiveness”.

From patent publication US5140102A, “Pentadecapeptide, guanylin, which stimulates intestinal guanylate cyclase” (Monsanto Company, priority 1991, dated 1992)
